Structures are written as SMILES.

In test [1] the target is T1, wildtype HIV-1 protease (Human immunodeficiency virus type 1 group M subtype B, UniProt P04585).
T1 construct: preincubated with the HIV-1 protease (wild type) enzyme in assay buffer; made in house; host or cells: Escherichia coli
Description: Assay for inhibition of microbial expressed HIV protease (Pepcleav). Type of test: biochemical. The note with it: wild type HIV-1 protease 20 pM, peptide substrate 400 micromolar, pH 5.5; mean of at least two independent experiments. A digest of the protocol: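 E. coli-expressed enzyme preincubated with inhibitor 30 min at room temperature in 50 mM sodium acetate pH 5.5, 100 mM NaCl, 0.1% BSA, then 400 micromolar peptide substrate added with 20 picomolar protease (final), 1 h at 30° C. Product quantified by LC-MS/MS peak area after formic acid/indinavir quench.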

For test [2], the system named is HIV-1 (NL4-3 strain). Put plainly: Viral Kinetics GFP Reporter (ViKinG) assay. It counts as cell-based. The note with it: Human immunodeficiency virus 1, NL43; 50% NHS; MT4-GFP cells infected with HIV-1 NL4-3; mean of at least two independent experiments. The source says: Viral Kinetics GFP Reporter (ViKinG) Assay
The ViKinG assay is an in vitro kinetic assay that employs the MT4-gag-GFP reporter cell line (Wang et al., “Assessment of the susceptibility of mutant HIV-1 to antiviral agents.” J Virological Methods 165:230-37 (2010)) to quantify the number of new cells infected in each round of replication. The purpose of the ViKinG assay is to identify agents that inhibit HIV progression. Briefly, HIV infection results in tat transactivation of the stably expressed HIV LTR promoter to drive gagGFP expression. Thus, an increase in the number of GFP-MT4 cells results following HIV infection.
MT4-GFP cells (250,000 cells/ml) were bulk-infected with HIV-1 (NL4-3 strain) at low multiplicity of infection (MOI) in RPMI+10% FBS for 24 hours. Cells were then washed once in RPMI+10% FBS and resuspended RPMI+10% or 50% normal human serum (NHS). Test compounds were serial-diluted in DMSO on an ECHO® liquid handling platform (Labcyte Corp., Sunnyvale, Calif.), along with a triple drug control (integrase, protease and NNRTI compounds). The infected MT4-GFP cells were added to a 384-well poly-D-lysine coated black plate with clear bottom in which the diluted test compounds were placed. The cells were seeded at 8,000 cells per well and the final DMSO concentration was 0.4%. The infected cells (Green GFP cells) were quantified at both 24 and 48 hours post incubation using Acumen® eX3 (TTP Labtech Ltd., Hertfordshire, United Kingdom). Viral reproductive ratio (R0) was determined using the number of infected cells at 48 hours divided by the number of infected cells at 24 hours. Percent viral growth inhibition was calculated by [1−(R−Rtripledrug)/(RDMSO−Rtripledrug)]*100. Compound potency IP or IC50 was determined by a 4-parameter dose response curve analysis.

For orientation: IC50 means the concentration that gives 50% inhibition. Read a high IC50 as weaker potency. As for `N[C@H](C(=O)Nc1cccc(F)c1CC[C@@H]1CNC[C@@H](COC(=O)NCC(F)(F)F)O1)C(c1ccc(F)cc1)c1ccc(F)cc1` [Example 99, 4-fluoro-β-(4-fluorophenyl)-N-(3-fluoro-2-{2-[(2R,6S)-6-({[(2,2,2-trifluoroethyl)carbamoyl]oxy}methyl)morpholin-2-yl]ethyl}phenyl)-L-phenylalaninamide], the half-maximal inhibitory concentration (IC50) in test [1] was 15 nM; in test [2], 59 nM.
The matching figures for `CS(=O)(=O)N1CCC2(CC1)CNC[C@@H](CCc1c(F)cccc1NC(=O)[C@@H](N)[C@@H](c1ccc(Cl)cc1)c1cc(F)cc(F)c1)O2` [Example 93, (βS)-4-chloro-β-(3,5-difluorophenyl)-N-(3-fluoro-2-{2-[(2R)-9-(methylsulfonyl)-1-oxa-4,9-diazaspiro[5.5]undec-2-yl]ethyl}phenyl)-L-phenylalaninamide]: 11 nM and 46 nM.
`COC(=O)N[C@H](C(=O)Nc1cccc(F)c1CC[C@@H]1CNCC2(CCN(S(C)(=O)=O)CC2)O1)[C@@H](c1ccc(Cl)cc1)c1cc(F)cc(F)c1` [Example 94, methyl {(1 S,2S)-2-(4-chlorophenyl)-2-(3,5-difluorophenyl)-1-[(3-fluoro-2-{2-[(2R)-9-(methylsulfonyl)-1-oxa-4,9-diazaspiro[5.5]undec-2-yl]ethyl}phenyl)carbamoyl]ethyl}carbamate]: the figures for the IC50 in test [1] and in test [2] were 11 nM and 42 nM, respectively.
`N[C@H](C(=O)Nc1cncc(F)c1CC[C@@H]1CNC[C@@H](CSc2nnc(-c3ccncc3)o2)O1)C(c1ccc(F)cc1)c1ccc(F)cc1` [Example 103, (S)-2-amino-N-(5-fluoro-4-(2-((2R,6S)-6-(((5-(pyridin-4-yl)-1,3,4-oxadiazol-2-yl)thio)methyl)morpholin-2-yl)ethyl)pyridin-3-yl)-3,3-bis(4-fluorophenyl)propanamide]: the figures for the IC50 in test [1] and in test [2] were 0.49 nM and 37 nM, respectively.
On the same counts, the results for `COC(=O)N[C@H](C(=O)Nc1cncc(F)c1CC[C@@H]1CNCC2(CCOCC2)O1)[C@@H](c1ccc(Cl)cc1)c1cc(F)cc(F)c1` [Example 98, methyl {(1S,2S)-2-(4-chlorophenyl)-2-(3,5-difluorophenyl)-1-[(4-{2-[(2R)-1,9-dioxa-4-azaspiro[5.5]undec-2-yl]ethyl}-5-fluoropyridin-3-yl)carbamoyl]ethyl}carbamate] are 29 nM and 88 nM.
On the same counts, the results for `N[C@H](C(=O)Nc1cccc(F)c1CC[C@@H]1CNC[C@@H](CSc2nnc(-c3ccncc3)o2)O1)C(c1ccc(F)cc1)c1ccc(F)cc1` [Example 91, 4-fluoro-β-(4-fluorophenyl)-N-(3-fluoro-2-{2-[(2R,6S)-6-{[(5-pyridin-4-yl-1,3,4-oxadiazol-2-yl)sulfanyl]methyl}morpholin-2-yl]ethyl}phenyl)-L-phenylalaninamide] are 0.25 nM and 20 nM.
